The nature of this data set: Low temperature (cold storage) stability testing, CIPAC Method 39.3 (1999). The class given is physicochemical. Conditions: for cold temperature stability at 0° C.: 750 g/L Dicamba (based on acid equivalent); for cold storage / low temperature stability at 0° C.: Dicamba 800 g/L acid equivalent. As for the experimental part: Compositions described in the Examples were examined by the CIPAC Method 39.3 (1999) the procedure of which is noted below.
Transfer 100±1.0 ml of the formulation to the tube and insert the stopper. Cool to 0±2° C. in the refrigerator (Note 2). If the sample contains a dissolved crystalline pesticide, remove the tube from the refrigerator after 24 hours, take off the stopper, add a small crystal of the pure or technical pesticide (Note 3) and replace the stopper. Replace the tube in the refrigerator and allow it to remain at 0±2° C. for a total period of 7 days (Note 4).
At the end of this time, note the volume and nature of any separated material. If the liquid phase is not homogeneous, note the volume of each layer. If there is any separated material, then allow the tube to reach room temperature over a period of 24 hours (Note 5), invert once and again note the volume and nature of any separated material. • Note 1 A domestic refrigerator is often unsuitable because the on/off cycle may cover a range larger than 4° C. • Note 2 Alternatively a graduated emulsion tube meeting BS 658 class B, type 1 (Crow Receiver) may be used. • Note 3 A crystal from the commercial manufacturing process is preferred. Alternatively a crystal separated from the formulation e.g. by distillation of the solvent may be used. • Note 4 Other temperature-storage period combinations may be specified. • Note 5 Room temperature being defined as 23±2° C. Note any temperature outside this range.
Low temperature stability testing was carried out in accordance with the Standard CIPAC Method 39.3 (1999) and the resulting percentage crystallisation is reported in Table 3.

With `CNC.COc1c(Cl)ccc(Cl)c1C(=O)O` [DMA salt], the “cold temperature stability at 0° C.” value was “not stable” and the “cold storage / low temperature stability at 0° C.” value is recorded as “Neither of the individual DMA or MMA salts were stable”.

Consider `CN.COc1c(Cl)ccc(Cl)c1C(=O)O` [MMA salt], for which the “cold temperature stability at 0° C.” value is listed as “not stable” and the “cold storage / low temperature stability at 0° C.” value is listed as “Neither of the individual DMA or MMA salts were stable”.

These data come from patent US8871683B2, “Dicamba herbicide composition” (Nufarm Australia Limited, priority 2008, dated 2014).
